Source: patent publication US20250170104A1, “INHIBITORS OF PSEUDOMONAS AERUGINOSA VIRULENCE FACTOR Lasß” (priority 2022, published 2025)
≈ marks a conversion by molar mass, not a printed value. Read-outs that look alike come from different tables or passages of the source.

How the values were obtained:
LasB = LasB (Pseudomonas aeruginosa (strain ATCC 15692 / DSM 22644 / CIP 104116 / JCM 14847 / LMG 12228 / 1C / PRS 101 / PAO1), UniProt P14756); experiment: In vitro LasB activity assay (fluorogenic substrate); format: biochemical; conditions: LasB 0.3 nM, substrate 150 μM, mean ± SD
LasB, sequence (P14756 198-498): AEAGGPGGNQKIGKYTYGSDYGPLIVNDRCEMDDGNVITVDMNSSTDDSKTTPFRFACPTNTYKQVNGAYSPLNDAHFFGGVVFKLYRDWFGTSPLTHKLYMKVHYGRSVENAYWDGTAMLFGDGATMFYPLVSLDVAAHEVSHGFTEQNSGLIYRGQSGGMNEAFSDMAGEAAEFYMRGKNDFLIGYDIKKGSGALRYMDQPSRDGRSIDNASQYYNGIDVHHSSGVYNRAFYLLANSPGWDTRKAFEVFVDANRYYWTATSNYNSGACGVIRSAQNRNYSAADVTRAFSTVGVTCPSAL
Procedure: The LasB activity assay was performed as described previously (Nishino N, Powers J C. Pseudomonas aeruginosa elastase. Development of a new substrate, inhibitors, and an affinity ligand. J Biol Chem. 1980 Apr. 25; 255(8):3482-6) using the fluorogenic substrate 2-Aminobenzoyl-L-Alanyl-Glycyl-L-Leucyl-L-Alanyl-para-Nitro-Benzyl-Amide, purchased from Peptides International (Louisville, KY, USA) and vivitide, LLC (Gardner, MA, USA).
Fluorescence intensity was measured for 60 min at 37° C. in black 384-well microtiter plates (Greiner BioOne, Kremsmünster, Austria) using a CLARIOstar microplate reader (BMG Labtech, Ortenberg, Germany) with an excitation wavelength of […] and an emission wavelength of 415±20 nm. The assay was performed in a final volume of 50 μL of assay buffer (50 mM Tris, pH 7.2, 2.5 mM CaCl2), 0.075% Pluronic F-127, 5% DMSO) containing LasB at a final concentration of […] 0.3 nM and the substrate at 150 μM. Before substrate addition, compounds were preincubated with the enzyme at 37° C. for 15 min. Experiments were performed in duplicates and repeated for at least two times. Blank controls without enzyme were performed. After blank subtraction, the slope of samples containing inhibitors (v) was divided by the slope of a simultaneously started uninhibited enzymatic reaction (v0). IC50 values were determined with nonlinear regression using GraphPad Prism 5 (Graph Pad Software, San Diego, CA, USA) and are given as mean values ±standard deviation (SD). The slope factor was constrained to 1.

[1] = Kinetic turbidimetric solubility assay; format: physicochemical; conditions: PBS, aqueous buffer, kinetic from dmso stock
Procedure: The desired compounds were sequentially diluted in DMSO in a 96-well plate. 1.5 μL of each well were transferred into another 96-well plate and mixed with 148.5 μL of PBS. Plates were shaken for 5 min at 600 rpm at room temperature, and the absorbance at 620 nm was measured. Absorbance values were normalized by blank subtraction and plotted using GraphPad Prism 8.4.2 (GraphPad Software, San Diego, CA, USA). Solubility (S) was determined based on the First X value of AUC function using a threshold of 0.005.

in vitro = in vitro ADME; conditions: mouse, s9
Procedure: For the evaluation of combined phase I and phase II metabolic stability, the compound (1 μM) was incubated with 1 mg/mL pooled liver S9 fraction (Xenotech), 2 mM NADPH, 1 mM UDPGA, 10 mM MgCl2, 5 mM GSH and 0.1 mM PAPS at 37° C. for 0, 5, 15, 30 and 60 min. The metabolic stability of Testosterone (1 μM), verapamil (1 μM) and ketoconazol (1 μM) were determined in parallel to confirm the enzymatic activity of the S9 fraction. The incubation was stopped by precipitation of S9 enzymes with 2 volumes of cold acetonitrile containing internal standard (150 nM Diphenhydramine). Samples were stored on ice for 10 min and precipitated protein was removed by centrifugation (15 min, 4° C., 4,000 rpm). The remaining test compound at different time points was analyzed by LC-MS/MS (TSQ Quantum Access MAX, Thermo Fisher, Dreieich, Germany) and used to determine half-life (t½).

MMP1 = MMP1 (Homo sapiens (Human), UniProt P03956); experiment: Selectivity assay: inhibition of MMPs; format: biochemical
MMP1, sequence (P03956 100-469): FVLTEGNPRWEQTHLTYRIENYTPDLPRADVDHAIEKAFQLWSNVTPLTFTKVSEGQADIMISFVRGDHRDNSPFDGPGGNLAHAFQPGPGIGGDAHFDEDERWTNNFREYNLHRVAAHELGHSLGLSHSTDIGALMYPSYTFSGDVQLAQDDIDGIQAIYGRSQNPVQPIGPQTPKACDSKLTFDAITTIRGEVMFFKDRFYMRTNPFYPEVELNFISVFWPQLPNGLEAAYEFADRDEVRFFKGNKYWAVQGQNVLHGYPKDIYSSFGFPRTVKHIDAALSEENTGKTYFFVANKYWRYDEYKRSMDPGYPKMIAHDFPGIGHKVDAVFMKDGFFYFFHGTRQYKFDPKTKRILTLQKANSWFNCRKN
Procedure: (§1) MMPs-1, -2, -3, -7, -8 and -14 along with the SensoLyte 520 Generic MMP Activity Kit*Fluorimetric* were purchased from AnaSpec (Fremont, CA, USA). The assay was performed as described previously (Schönauer E, Kany A M, Haupenthal J, Hüsecken K, Hoppe I J, Voos K, et al. Discovery of a Potent Inhibitor Class with High Selectivity toward Clostridial Collagenases. J Am Chem Soc. 2017 Sep. 13; 139(36):12696-703) using batimastat as a positive control according to the guidelines of the manufacturer.

MMP2 = MMP2 (Homo sapiens (Human), UniProt P08253); experiment: Selectivity assay: inhibition of MMPs; format: biochemical
MMP2, sequence (P08253 110-660): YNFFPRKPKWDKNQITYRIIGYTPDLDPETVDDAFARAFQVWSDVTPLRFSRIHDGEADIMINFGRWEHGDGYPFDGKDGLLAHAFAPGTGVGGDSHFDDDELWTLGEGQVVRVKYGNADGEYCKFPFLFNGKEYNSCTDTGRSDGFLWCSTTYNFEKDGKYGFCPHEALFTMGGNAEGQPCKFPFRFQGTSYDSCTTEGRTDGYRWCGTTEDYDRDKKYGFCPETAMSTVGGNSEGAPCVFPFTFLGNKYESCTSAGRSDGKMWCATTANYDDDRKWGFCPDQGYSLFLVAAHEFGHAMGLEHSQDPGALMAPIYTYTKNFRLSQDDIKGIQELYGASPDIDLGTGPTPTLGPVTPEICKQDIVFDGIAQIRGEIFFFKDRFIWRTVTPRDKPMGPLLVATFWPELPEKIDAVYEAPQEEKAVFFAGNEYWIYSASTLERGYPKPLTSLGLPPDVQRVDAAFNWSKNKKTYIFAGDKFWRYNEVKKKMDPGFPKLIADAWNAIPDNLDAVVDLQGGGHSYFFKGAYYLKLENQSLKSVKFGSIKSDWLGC
Procedure: as §1

MMP3 = MMP3 (Homo sapiens (Human), UniProt P08254); experiment: Selectivity assay: inhibition of MMPs; format: biochemical
Procedure: as §1

HDAC3 = HDAC3 (Homo sapiens (Human), UniProt O15379); experiment: HDAC inhibition; format: biochemical; conditions: read-out: Selectivity IC50 HDAC3
HDAC3, sequence (O15379 whole entry, looked up): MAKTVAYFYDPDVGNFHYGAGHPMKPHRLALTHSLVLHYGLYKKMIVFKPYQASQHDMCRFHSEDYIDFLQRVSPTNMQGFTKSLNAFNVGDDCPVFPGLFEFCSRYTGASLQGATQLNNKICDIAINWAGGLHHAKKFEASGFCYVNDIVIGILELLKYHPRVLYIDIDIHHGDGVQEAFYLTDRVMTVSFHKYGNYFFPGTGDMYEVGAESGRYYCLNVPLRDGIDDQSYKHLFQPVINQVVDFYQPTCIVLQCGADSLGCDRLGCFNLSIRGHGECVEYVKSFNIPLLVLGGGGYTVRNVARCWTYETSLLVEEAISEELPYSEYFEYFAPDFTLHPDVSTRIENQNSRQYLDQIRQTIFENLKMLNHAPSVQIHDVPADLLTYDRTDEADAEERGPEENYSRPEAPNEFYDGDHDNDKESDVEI
HDAC3, sequence (Q9Y618 whole entry partner, looked up): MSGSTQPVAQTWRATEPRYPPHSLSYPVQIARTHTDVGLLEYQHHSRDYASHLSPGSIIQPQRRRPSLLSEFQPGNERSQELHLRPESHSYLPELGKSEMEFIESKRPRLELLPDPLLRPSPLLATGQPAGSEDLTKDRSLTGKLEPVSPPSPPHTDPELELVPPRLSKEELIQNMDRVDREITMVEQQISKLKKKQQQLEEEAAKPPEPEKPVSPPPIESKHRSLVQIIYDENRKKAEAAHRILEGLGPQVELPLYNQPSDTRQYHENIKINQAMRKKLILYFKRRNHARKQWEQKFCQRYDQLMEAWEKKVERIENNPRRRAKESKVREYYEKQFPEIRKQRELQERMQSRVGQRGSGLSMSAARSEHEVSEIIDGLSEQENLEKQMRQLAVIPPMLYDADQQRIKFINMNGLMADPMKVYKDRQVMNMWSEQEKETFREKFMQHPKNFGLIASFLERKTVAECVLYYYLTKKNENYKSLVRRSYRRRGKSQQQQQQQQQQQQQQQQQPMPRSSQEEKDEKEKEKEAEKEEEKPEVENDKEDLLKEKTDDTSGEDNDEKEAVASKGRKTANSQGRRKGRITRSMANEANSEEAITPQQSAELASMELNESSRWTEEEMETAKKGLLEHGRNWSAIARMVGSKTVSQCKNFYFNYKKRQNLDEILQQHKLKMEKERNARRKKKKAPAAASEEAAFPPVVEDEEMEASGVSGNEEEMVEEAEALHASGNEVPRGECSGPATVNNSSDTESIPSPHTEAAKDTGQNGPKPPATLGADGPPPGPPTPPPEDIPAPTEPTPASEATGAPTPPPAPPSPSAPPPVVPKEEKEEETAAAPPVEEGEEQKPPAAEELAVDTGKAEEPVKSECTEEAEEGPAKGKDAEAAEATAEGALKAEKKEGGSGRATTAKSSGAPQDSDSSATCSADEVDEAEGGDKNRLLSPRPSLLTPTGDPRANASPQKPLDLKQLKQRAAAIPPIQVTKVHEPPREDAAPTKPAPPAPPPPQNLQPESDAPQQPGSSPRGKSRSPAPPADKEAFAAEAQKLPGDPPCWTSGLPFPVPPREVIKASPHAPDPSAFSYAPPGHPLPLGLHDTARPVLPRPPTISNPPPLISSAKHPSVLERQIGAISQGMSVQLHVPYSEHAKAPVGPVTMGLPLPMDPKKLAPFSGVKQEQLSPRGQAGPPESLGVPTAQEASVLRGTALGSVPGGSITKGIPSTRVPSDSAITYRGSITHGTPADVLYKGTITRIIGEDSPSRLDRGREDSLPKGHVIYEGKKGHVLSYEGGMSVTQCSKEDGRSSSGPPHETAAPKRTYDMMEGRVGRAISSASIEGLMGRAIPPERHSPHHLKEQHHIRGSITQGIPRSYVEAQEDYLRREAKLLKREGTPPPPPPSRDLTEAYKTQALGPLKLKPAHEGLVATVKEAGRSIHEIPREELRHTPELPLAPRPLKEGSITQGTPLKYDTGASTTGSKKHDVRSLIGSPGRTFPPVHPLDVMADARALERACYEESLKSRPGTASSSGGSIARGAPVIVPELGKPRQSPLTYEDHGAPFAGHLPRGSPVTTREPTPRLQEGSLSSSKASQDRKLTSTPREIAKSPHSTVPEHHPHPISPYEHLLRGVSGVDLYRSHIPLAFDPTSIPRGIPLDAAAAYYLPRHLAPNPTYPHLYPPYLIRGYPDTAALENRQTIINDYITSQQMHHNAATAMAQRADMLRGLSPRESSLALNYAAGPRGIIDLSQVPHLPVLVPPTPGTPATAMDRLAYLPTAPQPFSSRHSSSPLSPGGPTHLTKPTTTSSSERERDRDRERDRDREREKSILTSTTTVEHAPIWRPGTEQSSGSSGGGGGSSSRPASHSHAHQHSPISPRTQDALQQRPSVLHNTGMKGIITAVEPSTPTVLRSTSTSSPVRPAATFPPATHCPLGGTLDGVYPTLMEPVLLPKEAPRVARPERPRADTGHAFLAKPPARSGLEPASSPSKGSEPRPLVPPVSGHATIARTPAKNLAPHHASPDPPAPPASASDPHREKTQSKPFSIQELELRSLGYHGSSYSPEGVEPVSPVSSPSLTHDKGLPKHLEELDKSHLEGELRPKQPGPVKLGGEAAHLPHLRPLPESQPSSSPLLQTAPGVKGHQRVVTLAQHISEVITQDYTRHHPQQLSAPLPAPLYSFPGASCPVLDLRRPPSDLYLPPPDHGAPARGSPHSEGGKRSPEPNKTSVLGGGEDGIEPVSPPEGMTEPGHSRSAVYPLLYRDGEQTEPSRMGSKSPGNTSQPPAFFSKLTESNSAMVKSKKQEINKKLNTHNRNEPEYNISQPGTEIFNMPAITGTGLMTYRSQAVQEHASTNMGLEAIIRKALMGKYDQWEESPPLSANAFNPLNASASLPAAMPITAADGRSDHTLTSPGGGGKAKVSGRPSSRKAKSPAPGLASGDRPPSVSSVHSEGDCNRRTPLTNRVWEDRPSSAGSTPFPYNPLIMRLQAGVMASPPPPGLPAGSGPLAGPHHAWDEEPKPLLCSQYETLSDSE
Procedure: (§2) HDAC3 and HDAC8 Inhibitor Screening Assay kits were purchased from Sigma-Aldrich. The assay was performed according to the guidelines of the manufacturer using trichostatin as a positive control. Fluorescence signals were measured in a CLARIOstar plate reader (BMG Labtech).

HDAC8 = HDAC8 (Homo sapiens (Human), UniProt Q9BY41); experiment: HDAC inhibition; format: biochemical; conditions: read-out: Selectivity IC50 HDAC8
Procedure: as §2

ADAM-17 (TACE) = ADAM-17 (TACE) (Homo sapiens (Human), UniProt P78536); experiment: ADAM-17 (TACE) inhibitor screening assay; format: biochemical; conditions: read-out: Selectivity IC50 TACE
ADAM-17 (TACE), sequence (P78536 whole entry, looked up): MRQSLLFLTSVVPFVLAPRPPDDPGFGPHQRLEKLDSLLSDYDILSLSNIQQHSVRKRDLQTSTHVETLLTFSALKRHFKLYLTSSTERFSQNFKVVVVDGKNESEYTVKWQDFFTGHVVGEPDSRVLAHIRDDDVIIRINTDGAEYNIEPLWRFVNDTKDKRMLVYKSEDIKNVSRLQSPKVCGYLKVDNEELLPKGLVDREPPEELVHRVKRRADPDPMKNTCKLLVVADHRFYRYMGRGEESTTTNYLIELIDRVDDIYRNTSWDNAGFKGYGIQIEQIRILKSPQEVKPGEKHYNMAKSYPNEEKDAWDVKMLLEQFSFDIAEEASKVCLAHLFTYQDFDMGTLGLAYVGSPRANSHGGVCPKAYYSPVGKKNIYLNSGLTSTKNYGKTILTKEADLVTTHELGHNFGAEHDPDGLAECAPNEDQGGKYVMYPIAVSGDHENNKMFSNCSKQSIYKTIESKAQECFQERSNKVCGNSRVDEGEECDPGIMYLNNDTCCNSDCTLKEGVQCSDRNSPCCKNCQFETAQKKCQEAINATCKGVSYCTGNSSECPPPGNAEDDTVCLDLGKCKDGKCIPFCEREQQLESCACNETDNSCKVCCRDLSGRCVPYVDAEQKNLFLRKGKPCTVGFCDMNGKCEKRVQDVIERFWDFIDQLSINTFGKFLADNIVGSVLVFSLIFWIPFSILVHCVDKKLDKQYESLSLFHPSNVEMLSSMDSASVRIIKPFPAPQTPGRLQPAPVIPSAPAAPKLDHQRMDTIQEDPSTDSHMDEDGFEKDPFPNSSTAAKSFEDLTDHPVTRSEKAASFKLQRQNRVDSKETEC
Procedure: The ADAM-17 (TACE) Inhibitor Screening Assay Kit was purchased from Sigma-Aldrich. The assay was performed according to the guidelines of the manufacturer using ilomastat as a positive control. Fluorescence signals were measured in a CLARIOstar plate reader (BMG Labtech).

Cytotoxicity assay = format: cell-based; conditions: human
Procedure: HepG2, HEK293 or A549 cells (2×10^5 cells per well) were seeded in 24-well, flat-bottomed plates. Culturing of cells, incubations, and OD measurements were performed as described previously (Int. J. Cancer 2007, 121, 206-210). Twenty-four hours after seeding the cells, the incubation was started by the addition of test compound in a final DMSO concentration of 1%. The living cell mass was determined after 48 h. At least two independent measurements were performed for each compound.

P. aeruginosa PA-14 = experiment: MIC determination assay / antibacterial activity; format: cell-based; conditions: Pseudomonas aeruginosa, PA14
Procedure: Assays regarding the determination of the minimum inhibitory concentration (MIC) were performed as described previously (Elgaher W A M, Fruth M, Groh M, Haupenthal J, Hartmann R W. Expanding the scaffold for bacterial RNA polymerase inhibitors: design, synthesis and structure-activity relationships of ureido-heterocyclic-carboxylic acids. RSC Adv. 2013 Dec. 3; 4(5):2177-94). The experiments were based on the P. aeruginosa strain PA14. For the case that no MIC value could be determined due to activity reasons, percentage (%) inhibition at 100 μM (or lower, depending on the solubility of the compounds) was calculated. The OD600 was measured 0 and 16 h after inhibitor addition in a CLARIOstar Platereader (BMG Labtech, Ortenberg, Germany).

[2] = system: P. aeruginosa PAO1 (strain DSM22644); experiment: G. mellonella larvae survival after PAO1 infection; format: in vivo; conditions: for Final survival percentage of larvae: 3 CFU/Larva, 24 h
Procedure: Bacteria were grown overnight, diluted to OD600 of 0.025 in 10 ml medium, and grown for approx. 2 hours at 37° C. inside a shaker incubator until the OD600 of 1.8-2 is reached. The culture was then serially diluted in sterile PBS (pH=7.2). Bacterial densities of 3000, 300, 30, and 3 CFU/Larva were selected for injection into groups of 15 larvae. A total volume of 5 μl was injected into each larva via the hindmost left proleg by using a syringe pump and Sterican® needles (0.30×12 mm, 30G×½). In addition, control group without injection for the quality of the larvae and a PBS control to monitor the effect of the injection were included in the experiment. All test groups and control groups were incubated at 37° C. in the dark and monitored every 2 hours from 17 hours post-infection.
In vivo evaluation of compounds 162 and 169. Bacteria were cultured and prepared according to the previous section. Final concentrations of 50 μM, 25 μM, and 12.5 μM in combination with 3 CFU/Larva were injected into groups of 15 larvae. In addition to no injection and PBS controls, one group was infected with 3 CFU/Larva and considered the negative control. All test groups and control groups were incubated at 37° C. in the dark and monitored every 2 hours from 17 hours post-infection.

CC(C)CC(C(=O)NO)C(=O)Nc1ccc(Cn2cc(CN(C)S(=O)(=O)c3ccc(I)cc3)nn2)cc1 (stereo not drawn) [Compound 131, 2-(Hydroxycarbamoyl)-N-[4-[[4-[[(4-iodophenyl)sulfonyl-methyl-amino]methyl]triazol-1-yl]methyl]phenyl]-4-methyl-pentanamide]
IC50 (LasB): 0.0023 ± 0.0001 µM | solubility at 5 min [1]: < 200 µM | half-life at 1 μM (in vitro): 37.5 ± 2.5 min

CC(C)CC(C(=O)NO)C(=O)Nc1ccc(Cn2cc(CSc3ccc(Cl)cc3)nn2)cc1 (stereo not drawn) [Compound 136, N-[4-[[4-[(4-Chlorophenyl)sulfanylmethyl]triazol-1-yl]methyl]phenyl]-2-(hydroxycarbamoyl)-4-methyl-pentanamide]
IC50 (LasB): 0.0014 ± 0.0001 µM | solubility at 5 min [1]: < 200 µM | half-life at 1 μM (in vitro): 3.3 ± 0.2 min

CC(C)CC(C(=O)NO)C(=O)Nc1ccc(Cn2cc(CNS(=O)(=O)c3ccc(F)cc3)nn2)cc1 (stereo not drawn) [Compound 160, N-[4-[[4-[[(4-Fluorophenyl)sulfonylamino]methyl]triazol-1-yl]methyl]phenyl]-2-(hydroxycarbamoyl)-4-methyl-pentanamide]
IC50 (LasB): 0.0038 ± 0.0001 µM | solubility at 5 min [1]: > 200 µM | half-life at 1 μM (in vitro): 65.5 ± 0.7 min | IC50 (MMP1): > 100 µM | IC50 (MMP2): > 100 µM | IC50 (MMP3): > 100 µM | IC50 (HDAC3): > 100 µM | IC50 (HDAC8): > 100 µM | IC50 (ADAM-17 (TACE)): > 100 µM | IC50 at 48 h (Cytotoxicity assay; A549 cells): > 100 µM | IC50 at 48 h (Cytotoxicity assay; HEK293 cells): > 100 µM | IC50 at 48 h (Cytotoxicity assay; HepG2 cells): > 100 µM | IC50 (P. aeruginosa PA-14): > 100 µM

COc1ccc(S(=O)(=O)NCc2cn(Cc3ccc(NC(=O)C(CC(C)C)C(=O)NO)cc3)nn2)cc1 (stereo not drawn) [Compound 162, 2-(Hydroxycarbamoyl)-N-[4-[[4-[[(4-methoxyphenyl)sulfonylamino]methyl]triazol-1-yl]methyl]phenyl]-4-methyl-pentanamide]
IC50 (LasB): 0.0019 ± 0.0001 µM | Final survival percentage of larvae ([2]; 12.5 μM): 58% | Final survival percentage of larvae ([2]; 25 μM): 64% | Final survival percentage of larvae ([2]; 50 μM): 84% | Improvement in survival of larvae compared to negative control ([2]; 50 μM, vs 3 CFU/Larva without treatment): 40%

CC(C)CC(C(=O)NO)C(=O)Nc1ccc(Cn2cc(CNS(=O)(=O)c3ccc(Cl)c(Cl)c3)nn2)cc1 (stereo not drawn) [Compound 165, N-[4-[[4-[[(3,4-Dichlorophenyl)sulfonylamino]methyl]triazol-1-yl]methyl]phenyl]-2-(hydroxycarbamoyl)-4-methyl-pentanamide]
IC50 (LasB): 0.0016 ± 0.0001 µM | solubility at 5 min [1]: 117 µM (≈ 66.6 µg/mL) | half-life at 1 μM (in vitro): 10.7 ± 0.6 min

CC(C)CC(C(=O)NO)C(=O)Nc1ccc(CN=[N+]=[N-])cc1 (stereo not drawn) [Compound Z9, N-[4-(Azidomethyl)phenyl]-2-(hydroxycarbamoyl)-4-methyl-pentanamide]
IC50 (LasB): 0.0169 ± 0.0006 µM | IC50 (MMP1; read-out: Selectivity IC50 MMP1): > 100 µM | IC50 (MMP2): > 100 µM | IC50 (MMP3): > 100 µM | IC50 (HDAC3): > 100 µM | IC50 (HDAC8): > 100 µM | IC50 (ADAM-17 (TACE)): 1.6 ± 0.2 µM | IC50 at 48 h (Cytotoxicity assay; A549 cells): > 100 µM | IC50 at 48 h (Cytotoxicity assay; HEK293 cells): > 100 µM | IC50 at 48 h (Cytotoxicity assay; HepG2 cells): > 100 µM | IC50 (P. aeruginosa PA-14): > 100 µM

CC(C)CC(C(=O)NO)C(=O)Nc1ccc(Cn2cc(CNS(=O)(=O)CC34CCC(CC3=O)C4(C)C)nn2)cc1 (stereo not drawn) [Hit L2, N-[4-[[4-[[(7,7-Dimethyl-2-oxo-norbornan-1-yl)methylsulfonylamino]methyl]triazol-1-yl]methyl]phenyl]-2-(hydroxycarbamoyl)-4-methyl-pentanamide]
IC50 (LasB): 0.0053 ± 0.0001 µM

CC(C)CC(C(=O)NO)C(=O)Nc1ccc(Cn2cc(CNS(=O)(=O)c3ccc(-c4ccccc4)cc3)nn2)cc1 (stereo not drawn) [Hit L3, 2-(Hydroxycarbamoyl)-4-methyl-N-[4-[[4-[[(4-phenylphenyl)sulfonylamino]methyl]triazol-1-yl]methyl]phenyl]pentanamide]
IC50 (LasB): 0.0139 ± 0.0003 µM

CC(C)CC(C(=O)NO)C(=O)Nc1ccc(Cn2cc(C3CSCN3C(=O)c3ccc(F)cc3)nn2)cc1 (stereo not drawn) [Hit L4, N-[4-[[4-[3-(4-Fluorobenzoyl)thiazolidin-4-yl]triazol-1-yl]methyl]phenyl]-2-(hydroxycarbamoyl)-4-methyl-pentanamide]
IC50 (LasB): 0.0066 ± 0.0002 µM

CC(=O)Nc1ccccc1OCc1cn(Cc2ccc(NC(=O)C(CC(C)C)C(=O)NO)cc2)nn1 (stereo not drawn) [Hit L5, N-[4-[[4-[(2-Acetamidophenoxy)methyl]triazol-1-yl]methyl]phenyl]-2-(hydroxycarbamoyl)-4-methyl-pentanamide]
IC50 (LasB): 0.0138 ± 0.0003 µM
